Assays:
[1] = test system: Infectious Bovine Rhinotracheitis virus; assay type: cell-based
[2] = feed-utilization efficiency in sheep; assay type: in vivo; conditions: 56 days; for Feed Intake: control 3.56; for Feed/Gain: control 8.38; for Average Daily Gain: control .42
[3] = test system: Staphylococcus aureus (H-Heatley) NRRL B-314; assay: turbidometric assay on semiautomated system (Autoturb), relative gram-positive activity; assay type: cell-based; conditions: relative to A-28086 factor A (standard); nutrient broth pH 7, four hours at 37° C.
Experimental: The C2 -C6 -acyl ester derivatives of A-28086 factor A also have antibacterial and antifungal activity. In one aspect, these derivatives have increased gram-positive activity. The relative gram-positive activities of certain of these derivatives were compared with the activity of factor A. The compounds were tested by turbidometric assay on a semiautomated system (Autoturb® microbiological assay system, Elanco) described by N. R. Kuzel and F. W. Kavanaugh in J. Pharmaceut. Sci. 60 (5), 764 and 767 (1971). In testing the A-28086 antibiotics, the following test parameters were used: Staphylococcus aureus (H-Heatley) NRRL B-314 in a nutrient broth medium (pH 7), incubated for four hours at 37° C. Test samples and the standard were dissolved in methanol-water (10:90). The standard, A-28086 factor A, was presented to the Autoturb® carrousel at concentrations of 2, 3, 4, and 5 mcg/ml. Test compounds were diluted to contain approximately 3 or 4 mcg of activity per ml, as presented to the carrousel. The relative activities of test compounds, as compared to that of the standard, are given below: […]

solubility = assay type: physicochemical
Eimeria tenella = assay: anticoccidial activity in chicks (Table VIII); assay type: in vivo; conditions: for Percent Weight Gain: normal controls 100
Eimeria maxima = assay: anticoccidial activity in chicks (Table IX); assay type: in vivo; conditions: E. maxima, 0.005 percent in feed
Excerpt: (§1) ^1 Four replicates, 5 broiler cockerels each

Emeria brunetti = assay: anticoccidial activity in chicks (Table IX); assay type: in vivo; conditions: E. brunetti, 0.005 percent in feed
Excerpt: as §1

Eimeria acervulina = assay: anticoccidial activity in chicks (Table IX); assay type: in vivo; conditions: E. acervulina; for Average Lesion Score: infected controls 1.60; for Oocysts Passed, Total/Bird: infected controls 36.32; for Percent Weight Gain: infected controls 63
Excerpt: as §1

rumen fluid = assay: in vitro rumen fluid volatile fatty acid production; set-up: species or system steer; conditions: 1 ppm in rumen fluid, 16 hours at 38° C.
Excerpt: As discussed hereinabove, efficiency of carbohydrate utilization in ruminants is increased by treatments which stimulate the amimal's rumen flora to produce propionate compounds rather than acetate or butyrate compounds. The efficiency of feed use can be monitored by observing the production and concentration of propionate compounds in the rumen, using the following methods:
Remen fluid is obtained from a steer with a surgically-installed fistula opening into the rumen. The steer is maintained on a high-grain ration. A sample of rumen fluid is strained through four layers of cheesecloth, and the filtrate is collected. The particulate matter retained by the cheesecloth is resuspended in enough physiological buffer to return it to the original volume of the rumen fluid, and this suspension is strained again. The buffer used has the following composition:
The two filtrates are combined and allowed to stand until particulate matter separates to the top. The clear layer is separated, diluted with the same buffer (1:1) and then adjusted to between pH 6.8 to 7.0.
The diluted rumen fluid (10 ml) is placed in a 25-ml flask with 40 mg of the above-described feed, an additional 1 mg of soybean protein, and the compound to be tested. Four replicate flasks are used per treatment. Two sets of four control flasks each are also employed. A zero-time control and an incubated 16-hour control are used. All test flasks are incubated for 16 hours at 38° C. […] The samples are allowed to settle, and the supernatants are analyzed by gas chromatography for propionate, acetate, and butyrate compounds.

herpes virus = assay: in vitro plaque suppression test; assay type: cell-based
vaccinia virus = assay type: cell-based; conditions: in vitro plaque suppression
ruminal propionic acid = ruminal propionic acid concentration in fistulated steers; assay type: in vivo; conditions: mean of five analyses in 14-day treatment
Experimental: The test reported in Table XII was conducted with mature fistulated steers weighing about 1,000 lbs. each. Two steers were fed a normal diet, and four steers in each treatment group were fed an identical diet to which A-28086 factor A had been added. To each aliquot (100 ml) of rumen fluid taken, 10 percent metaphosphoric acid (100 ml) was added. The samples were allowed to settle, and the supernatants were analyzed by gas chromatographic methods to determine propionic acid concentrations.
The results in Table XII are the mean percent increases in ruminal propionic acid concentration, averaged over five analyses in a 14-day treatment period. Controls had approximately 20 molar percent propionic acid.

[4] = first group, 0.01 percent in feed
[5] = first group, 0.02 percent in feed
[6] = first group, 0.04 percent in feed
[7] = second group, 0.0025 percent in feed
[8] = second group, 0.005 percent in feed
[9] = second group, 0.01 percent in feed
[10] = second group, 0.02 percent in feed

SMILES: CCC(C(=O)O)C1OC(C(C)C(O)C(C)C(=O)C(CC)C2OC3(C=CC(O)C4(CCC(C)(C5CCC(O)(CC)C(C)O5)O4)O3)C(C)CC2C)C(C)CC1C (stereo not drawn) [A-28086 factor A]
- antiviral activity [1]: active
- Feed Intake ([2]; 9 g per ton of feed): 3.29 lbs./day
- Feed/Gain ([2]; 9 g per ton of feed): 7.40
- Average Daily Gain ([2]; 9 g per ton of feed): .44 lbs./day
- Feed Intake ([2]; 18 g per ton of feed): 3.15 lbs./day
- Feed/Gain ([2]; 18 g per ton of feed): 8.31
- Average Daily Gain ([2]; 18 g per ton of feed): .38 lbs./day
- feed-utilization efficiency (in words) ([2]; sheep): increases feed-utilization efficiency
- Relative G+ Activity [3]: 1
- solubility in organic solvents (solubility; organic solvents such as methanol, ethanol, DMF, DMSO, ethyl acetate, chloroform, acetone, benzene): soluble
- solubility in water (solubility; water): insoluble in water
- Percent Reduction in Lesion Score (Eimeria tenella; [4]): 95%
- Percent Mortality (Eimeria tenella; first group, 0.01 percent in feed, 10 chickens): 0%
- Average Lesion Score (Eimeria tenella; first group, 0.01 percent in feed, infected controls 3.65): 0.2
- Percent Weight Gain (Eimeria tenella; [4]): 94%
- Percent Reduction in Lesion Score (Eimeria tenella; [5]): 95%
- Percent Mortality (Eimeria tenella; first group, 0.02 percent in feed, 10 chickens): 0%
- Average Lesion Score (Eimeria tenella; first group, 0.02 percent in feed, infected controls 3.65): 0.2
- Percent Weight Gain (Eimeria tenella; [5]): 82%
- Percent Reduction in Lesion Score (Eimeria tenella; [6]): 100%
- Percent Mortality (Eimeria tenella; first group, 0.04 percent in feed, 10 chickens): 0%
- Average Lesion Score (Eimeria tenella; first group, 0.04 percent in feed, infected controls 3.65): 0
- Percent Weight Gain (Eimeria tenella; [6]): 50%
- Percent Reduction in Lesion Score (Eimeria tenella; [7]): 0%
- Percent Mortality (Eimeria tenella; second group, 0.0025 percent in feed, 20 chickens): 10%
- Average Lesion Score (Eimeria tenella; second group, 0.0025 percent in feed, infected controls 3.85): 3.85
- Percent Weight Gain (Eimeria tenella; [7]): 87%
- Percent Reduction in Lesion Score (Eimeria tenella; [8]): 27%
- Percent Mortality (Eimeria tenella; second group, 0.005 percent in feed, 20 chickens): 0%
- Average Lesion Score (Eimeria tenella; second group, 0.005 percent in feed, infected controls 3.85): 2.8
- Percent Weight Gain (Eimeria tenella; [8]): 91%
- Percent Reduction in Lesion Score (Eimeria tenella; [9]): 100%
- Percent Mortality (Eimeria tenella; second group, 0.01 percent in feed, 20 chickens): 0%
- Average Lesion Score (Eimeria tenella; second group, 0.01 percent in feed, infected controls 3.85): 0
- Percent Weight Gain (Eimeria tenella; [9]): 96%
- Percent Reduction in Lesion Score (Eimeria tenella; [10]): 100%
- Percent Mortality (Eimeria tenella; second group, 0.02 percent in feed, 20 chickens): 0%
- Average Lesion Score (Eimeria tenella; second group, 0.02 percent in feed, infected controls 3.85): 0
- Percent Weight Gain (Eimeria tenella; [10]): 84%
- Oocysts Passed, Percent Reduction (Eimeria maxima): 40%
- Percent Mortality (Eimeria maxima): 0%
- Percent Reduction in Lesion Score (Eimeria maxima): 85%
- Average Lesion Score (Eimeria maxima; infected controls 1.3): 0.2
- Oocysts Passed, Total/Bird (Eimeria maxima; infected controls 3.24): 1.95 1 × 10^6
- Percent Weight Gain (Eimeria maxima; infected controls 65): 85%
- Oocysts Passed, Percent Reduction (Emeria brunetti): 58%
- Percent Mortality (Emeria brunetti): 0%
- Average Lesion Score (Emeria brunetti; infected controls 1.7): 1.2
- Oocysts Passed, Total/Bird (Emeria brunetti; infected controls 5.55): 2.31 1 × 10^6
- Percent Weight Gain (Emeria brunetti; infected controls 62): 88%
- Oocysts Passed, Percent Reduction (Eimeria acervulina; 0.0025 percent in feed): 86%
- Percent Mortality (Eimeria acervulina; 0.0025 percent in feed): 0%
- Average Lesion Score (Eimeria acervulina; 0.0025 percent in feed): 1.25
- Oocysts Passed, Total/Bird (Eimeria acervulina; 0.0025 percent in feed): 4.91 1 × 10^6
- Percent Weight Gain (Eimeria acervulina; 0.0025 percent in feed): 82%
- Oocysts Passed, Percent Reduction (Eimeria acervulina; 0.005 percent in feed): 83%
- Percent Mortality (Eimeria acervulina; 0.005 percent in feed): 0%
- Percent Reduction in Lesion Score (Eimeria acervulina; 0.005 percent in feed): 53%
- Average Lesion Score (Eimeria acervulina; 0.005 percent in feed): 0.75
- Oocysts Passed, Total/Bird (Eimeria acervulina; 0.005 percent in feed): 6.15 1 × 10^6
- Percent Weight Gain (Eimeria acervulina; 0.005 percent in feed): 87%
- Ratio of Treated to Control, Molar % acetate (rumen fluid): 0.94
- Ratio of Treated to Control, Molar % butyrate (rumen fluid): 0.87
- Ratio of Treated to Control, Molar % propionate (rumen fluid): 1.34
- Ratio of Treated to Control, Total VFA mM/l (rumen fluid): 1.26
- antiviral activity (herpes virus): active
- antiviral activity (vaccinia virus): active
- Percent Increase Over Control in ruminal propionic acid concentration (ruminal propionic acid; 25 mg/day): 17.4%
- Percent Increase Over Control in ruminal propionic acid concentration (ruminal propionic acid; 100 mg/day): 54.0%
